Experimental data: patent publication US8377918B2 (ACC Therapeutics Inc, priority 2005, dated 2013)

Assays:
lung cancer cell A549 = assay: A549 cell counting proliferation; type: cell-based, human; details: A549, 10 and 20 μM, 24 and 48 h
Method: FIG. 12. […] A, A549 cells were seeded at 5 ×10^5 cells/well on a 24-well plate, and cultured overnight the day before the treatment. […] After 24 and 48 h, aliquots of cells were counted in triplicate using a hemocytometer to obtain cell number and proliferation rate.

[1] = tested on: HIF-1 expression in OVCAR-3 cells; assay: HIF-1 immunoblotting, OVCAR-3; type: cell-based, human
Description: (§1) FIG. 5. […] The cells treated with solvent alone were used as a control. HIF-1α and HIF-1β protein levels were detected by immunoblotting as described in Materials and Methods. GAPDH was used as an internal control to test the loading and transfer efficiency.

[2] = tested on: tumors induced by A2780/CP70 cells; assay: Blood vessel numbers of A2780/CP70 tumors on CAM; type: in vivo, chicken embryo; details: 10 μM apigenin or 2.5 μM CDDP+10 μM apigenin, 10 days
Method: (§2) FIG. 4. […] The A2780/CP70 cells were seeded into 100 mm dish and grown to 90-100% confluence. […] In 10 days, the tumors were harvested and weighed. The blood vessel numbers of the tumor were counted under×100. At least five areas were determined. The data are mean±SD from two experiments (n=8). A, representative tumor morphology; B, tumor weight; C, relative numbers of blood vessels.

endothelial cells = assay: Tube formation in vitro; type: cell-based
A2780/CP70 tumors [3] = assay: Secondary tumor growth in chicken embryos; type: in vivo, chicken embryo; details: 7.5 μM apigenin, 9 days
Method: FIG. 2. […] Ovarian cancer cells A2780/CP70 were planted into 9-days old fertilized chicken embryos and incubated for 9 days to allow the tumor formation. The formed tumors were harvested and cut into pieces of 9-10 mg weight, and immediately implanted into another 9-day old fertilized chicken embryo and incubated for 9 days. […] In 9 days, the secondary tumor was cut and weighed.

[4] = tested on: HIF-1 expression in A2780/CP70 cells; assay: HIF-1 immunoblotting, A2780/CP70; type: cell-based, human
Description: as §1

A2780/CP70 tumors [5] = assay: New blood vessel formation in tumors on CAM; type: in vivo, chicken embryo; details: 15 μM apigenin, 100 h
Method: FIG. 7. […] A2780/CP70 ovarian cancer cells were mixed with Matrigel and implanted onto the chorioallantoic membrane (CAM) of a 9-day old embryo. In 100 h, the tumor was cut off and the newly-formed blood vessels on the back of the tumor were determined.

A549 cells = assay: MTT cell proliferation assay, A549 lung cancer cells; type: cell-based, human; details: A549, apigenin alone, 24 h
Method: FIG. 17. […] A, the prostate cancer cells PC-3 and DU145; B, colon cancer cells Colo-205 and HCT-116; C, lung cancer cells A549 and H460 cells were plated at 1×10^4 cells per well in a 96 well plate in 100 μl of media.

[6] = tested on: tumors induced by A2780/CP70 cells; assay: Tumor weight of A2780/CP70 tumors on CAM; type: in vivo, chicken embryo; details: 10 μM apigenin or 2.5 μM CDDP+10 μM apigenin, 10 days
Method: as §2

[7] = tested on: human fibroblast GM847 cells; assay: MTT proliferation, human fibroblast GM847 cells; type: cell-based; details: same experimental conditions as cancer cells, 24 h
Method: (§3) FIG. 1. […] (A) A2780/CP70 cells and human fibroblast GM847 cells were seeded in 96-well plate at 4×10^3 cells per well and incubated overnight. […] The cells were incubated for 24 h. Cell proliferation was determined by MTT reduction. […] Cells were trypsinized, harvested, washed once with PBS buffer, and stained using the Annexin-V-Folus Kit as per the manufacture's instructions. […] After incubation, all cells were collected and total DNA was isolated. Eight (8) μg of DNA was resolved on 1.8% agarose gel. […] (D) Treatment of GM847 cells was the same as that of 5D. […] Cleavage of caspase-3 and PARP was detected by western-blot.

A2780/CP70 cells = assay: MTT cell proliferation assay, A2780/CP70 ovarian cancer cells; type: cell-based, human; details: A2780/CP70, apigenin alone, 24 h
Method: as §3
FIG. 3. […] A2780/CP70 cells were seeded in 96-well plates and incubated overnight. The old medium was discarded and fresh medium with cisplatin (CDDP) in the presence or absence of apigenin (Api) was added. In 24 h, the cell proliferation was determined by means of MTT reduction method.
FIG. 9. […] A, Cisplatin-resistant ovarian cancer cell line A2780/CP70, and B, prostate cancer cells PC-3 were seeded in 96-well plates at 1×10^4 cells/well and incubated overnight. […] In 24 h, the cell proliferation was assayed by using a MTT assay kit. *indicates significant difference compared to cisplatin alone (p<0.01).

Colo-205 cells = assay: MTT cell proliferation assay, Colo-205 colon cancer cells; type: cell-based, human; details: Colo-205, apigenin alone, 24 h
Method: FIG. 17. […] A, the prostate cancer cells PC-3 and DU145; B, colon cancer cells Colo-205 and HCT-116; C, lung cancer cells A549 and H460 cells were plated at 1×10^4 cells per well in a 96 well plate in 100 μl of media. […] FIG. 20. […] A, the prostate cancer cells PC-3 and DU145; B, colon cancer cells Colo-205 and HCT-116; C, lung cancer cells A549 and H460 cells were plated at 1×10^4 cells per well in a 96 well plate. […] Cell proliferation was examined by MTT assay. […] FIG. 22. […] A, colon cancer cells Colo-205 and HCT-116; B, lung cancer cells A549 and H460 cells were plated at 1×10^4 cells per well in a 96 well plate the day before the treatment. […] Cell proliferation was examined by MTT assay. […] FIG. 24. […] The IC50 values for inhibiting cell proliferation were calculated from cell proliferation assay as described above.

[8] = tested on: VEGF expression in A2780/CP70 cells; assay: VEGF ELISA of supernatants, A2780/CP70; type: cell-based, human; details: A2780/CP70, 15 h
Method: (§4) FIG. 6. […] OVCAR-3 and A2780/CP70 cells were plated in 12-well plates and cultured to 90% confluence. […] The concentrations of VEGF in the supernatants were determined by ELISA method as described in Materials and Methods. The data are mean±SE from three independent experiments and each experiment was performed with triplicate cultures.

[9] = tested on: VEGF expression in OVCAR-3 cells; assay: VEGF ELISA of supernatants, OVCAR-3; type: cell-based, human; details: OVCAR-3, 15 h
Method: as §4

Structure (SMILES): O=c1cc(-c2ccc(O)cc2)oc2cc(O)cc(O)c12 [apigenin, 4′,5,7,-trihydroxyflavone]
- effect on lung cancer cell proliferation (lung cancer cell A549): significantly inhibits
- effect on HIF-1 expression [1]: inhibited HIF-1 expression
- inhibition of blood vessel formation (angiogenesis) [2]: 35%
- effect on tube formation (endothelial cells): inhibited tube formation
- effect on tumor growth (secondary tumor weight) (A2780/CP70 tumors [3]): inhibited tumor growth
- effect on HIF-1 expression [4]: inhibited HIF-1 expression
- effect on new blood vessel formation (angiogenesis) in tumors (A2780/CP70 tumors [5]): inhibited new blood vessel formation
- effect on cell proliferation (A549 cells): inhibited the proliferation
- inhibition of tumor growth [6]: 40%
- effect on human normal fibroblast cells [7]: little effects
- effect on cell proliferation (A2780/CP70 cells): inhibited cell proliferation
- effect on cell proliferation (Colo-205 cells): inhibited the proliferation
- effect on expression of VEGF [8]: inhibited the expression of VEGF
- effect on expression of VEGF [9]: inhibited the expression of VEGF
